Consider one compound from patent publication US7034051B2, “Fused bicyclic carboxamide derivatives and methods of their use” (Adolor Corporation, priority 2003, dated 2006).

Test [1] addresses T1, cloned human δ opioid receptor (Homo sapiens, UniProt P41143).
T1 construct: expressed in transfected cells
The test can be described thus: In vitro binding assay, inhibition of [3H]diprenorphine binding to cloned human δ opioid receptor. How it is done: IC50 values were obtained by nonlinear analysis of the data using GraphPad Prism version 3.00 for Windows (GraphPad Software, San Diego). Ki values were obtained by Cheng-Prusoff corrections of IC50 values.
After incubation at room temperature for one hour, the samples were filtered through GF/B filters that had been presoaked in a solution of 0.5% (w/v) polyethylenimine and 0.1% (w/v) bovine serum albumin in water. The filters were rinsed 4 times with 1 mL of cold 50 mM Tris HCl, pH 7.8 and radioactivity remaining on the filters determined by scintillation spectroscopy. Nonspecific binding was determined by the minimum values of the titration curves and was confirmed by separate assay wells containing 10 μM naloxone.
To determine the equilibrium dissociation constant for the inhibitors (Ki), radioligand bound (cpm) in the presence of various concentrations of test compounds was measured. The concentration to give half-maximal inhibition (EC50) of radioligand binding was determined from a best nonlinear regression fit to the following equation,
The nonlinear regression fit was performed using the program Prism® (GraphPad Software, San Diego, Calif.). The Ki values were then determined from the EC50 values by the following equation, […]

The test system of test [2] is formalin-induced flinching in rats. The experiment in a line: In vivo formalin-induced nociception assay. Set-up: species or system rat. The following applies: dose of 300 μg, i.paw. An excerpt:
Administration of formalin into the paw results in a localized inflammation and a pain response that is moderate in intensity and continuous in duration. Unlike many other assays of nociception, the formalin assay measures tonic pain that is a result of tissue injury, and therefore is a model which is more relevant to clinical pain states in humans (see Tjolsen et al., Pain 51: 5–17, 1992). In the rat the response to formalin-induced pain consists of spontaneous flinching behavior, characterized by paw lifting and paw shaking, and a rapid vibration of the paw after drawing it under the body. […] The early or acute phase lasts from 0–5 minutes post-formalin and is followed by a quiescent period lasting approximately 15 minutes. The tonic phase occurs from 20–35 minutes following formalin injection and is the interval where the number of flinching responses is maximal. […]
Inflammation is induced by subcutaneous injection of […] of a 5% formalin solution into the dorsal surface of the right hind paw of male Sprague-Dawley rats weighing 70–90 g. Injections of drug are given into the dorsal surface of the paw prior to formalin injection, and flinching behavior is quantitated by counting the number of responses that occur during the tonic phase of pain, lasting from 20–35 min after formalin injection. […]

The structures appear in SMILES notation.

T1 sequence (P41143 whole entry): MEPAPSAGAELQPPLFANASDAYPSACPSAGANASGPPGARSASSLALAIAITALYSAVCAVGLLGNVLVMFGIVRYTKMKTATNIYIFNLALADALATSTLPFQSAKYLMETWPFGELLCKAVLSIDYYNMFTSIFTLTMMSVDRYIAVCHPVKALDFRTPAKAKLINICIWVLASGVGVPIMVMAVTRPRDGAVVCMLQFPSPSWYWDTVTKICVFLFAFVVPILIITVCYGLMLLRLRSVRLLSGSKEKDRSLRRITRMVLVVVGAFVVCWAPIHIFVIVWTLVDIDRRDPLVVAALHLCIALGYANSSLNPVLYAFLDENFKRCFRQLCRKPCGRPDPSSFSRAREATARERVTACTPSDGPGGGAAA

In general, Ki refers to a dissociation constant, usually derived from enzyme kinetics or from competition with a known ligand. For the compound `COC(=O)NCc1ccc2c(c1)CC[C@H](C(=O)N(C)[C@H](CN1CC[C@H](O)C1)c1ccccc1)O2` [Example 52, (2-{[2-({S}-3-Hydroxy-pyrrolidin-1-yl)-{S}-1-phenyl-ethyl]-(R)-methyl-carbamoyl}-chroman-6-ylmethyl)-carbamic acidmethyl ester], in test [1], the inhibition constant Ki came to 1600 nM. Further, the “% A (percent antagonism of formalin-induced flinching)” value in test [2] is listed as 95%.
